From patent US8563503B2, “Antibiotic, its nucleotide sequence, methods of construction and uses thereof” (Protein Design Lab. Ltd., priority 2011, dated 2013)

Columns and labels:
[1] = tested on: ATCC 25923 penicillin-sensitive Staphylococcus aureus; experiment: Bacteria growth curve (A595 nm cloudiness), penicillin-sensitive Staphylococcus aureus; format: cell-based; details: drug 100 ng/ml, 37° C., A595 nm per hour
Protocol: The bacterium was United States Reference Culture ATCC 25923 penicillin-sensitive Staphylococcus aureus. 2 microliter of bacteria solution (10^5 CFU/ml) was added into 10 ml culture solution containing 1% tryptone, 1% NaCl, 0.5% yeast extract, 0.5% glucose and 0.1% K2HPO4, totally prepared six groups. The first group as control was added 0.3 M NaCl+50 mM boric acid buffer fluid (i.e. blank preservative fluid for novel antibiotic, wild-type colicin Ia and protein produced by BL-21 engineering bacteria without plasmid, by the same volumes of antibiosis polypeptide liquid in the experimental group, the second group was added penicillin G sodium by 100 ng/ml, the third group was added wild-type colicin Ia by 100 ng/ml, the fourth group was added protein produced by BL-21 engineering bacteria without plasmid by 100 ng/ml, the fifth group was added recombinant protein that C-terminus of colicin Ia is fused other eight peptides by 100 ng/ml, and the sixth group was added the novel antibiotic PMC-SA1 by 100 ng/ml.
The solutions of the six groups were respectively put into 100 ml conical flask, 200 rpm, grew at 37° C. 100 μl was sampled per hour, and added onto 96 hole ELISA Plate and measured bacterium growth cloudiness by spectrophotometer (A595 nm) color comparison. The bacteria-growth curve was drawn up to compare the bacteriostasis efficacy of novel antibiosis.

Baumanii = experiment: MIC by Agar Doubling Dilution Method, clinical isolates; format: cell-based
Protocol: (§1) (3) Culture Solution • MH Broth Culture Solution: 25 g was added into […] distilled water, heat to dissolve, subpackaged, autoclaved at 116° C. for 20 minutes, and MH Solid Culture Medium, 36 g was added into 1000 ml distilled water, autoclaved at 116° C. for 20 minutes, used for drug sensitive test of Gram-positive and negative aerobic bacteria. • Blood culture solution for Enterococcus faecalis, which was prepared by adding defibration rabbit blood into the MH culture solution by 5-10% and cultured at 37° C. in 5% CO2 for 24 hours. 2. Experimental Methods (1) The Measurement of Minimum Inhibitory Concentration (MIC) • The Minimum Inhibitory Concentration (MIC) of PMC-SA1 was measured by Agar Doubling Dilution Method. The bacterium was inoculated on the surface of agar plate containing different concentration of drugs by multipoint inoculate instrument (Deneley A400). The bacterial content per point was 10^5 CFU/ml. After incubated at 37° C. for 18-24 hours, the result can be observed. The least concentration of drugs in plate culture solution without bacterium growing was Minimum Inhibitory Concentration (MIC) of the drug to the said bacteria. 3. Results

E. coli = experiment: as above; format: cell-based; details: Escherichia coli, E. coli clinical strains
Protocol: as §1

[2] = tested on: Staphylococcus aureus (MRSA); experiment: as above; format: cell-based; details: Staphylococcus aureus, MRSA
Protocol: as §1

[3] = tested on: Staphylococcus aureus (MSSA); experiment: as above; format: cell-based; details: Staphylococcus aureus, MSSA
Protocol: as §1

[4] = tested on: Staphylococcus epidermidis (MRSE); experiment: as above; format: cell-based; details: Staphylococcus epidermidis, MRSE
Protocol: as §1

[5] = tested on: Staphylococcus epidermidis (MSSE strain); experiment: as above; format: cell-based
Protocol: as §1

Enterococcus = experiment: as above; format: cell-based, Enterococcus faecalis; details: Enterococcus
Protocol: as §1

Enterococcus ATCC 700802 [6] = experiment: MIC against the infecting strain (Table 2); format: cell-based, Enterococcus faecalis; details: ATCC700802
Protocol: as §1

E. coli 02-1-65 [7] = experiment: MIC against the infecting strain (Table 2); format: cell-based; details: Escherichia coli, 02165
Summary of the method: (§2)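 MICs by agar doubling dilution on Mueller–Hinton agar (Enterococcus faecalis on MH supplemented with 5–10% defibrinated rabbit blood, 5% CO2). Inoculum 10^5 CFU/ml per spot by multipoint inoculator; plates read after 18–24 h at 37 °C. MIC is the lowest drug concentration with no growth.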

[8] = tested on: Staphylococcus aureus ATCC 29213; experiment: MIC against the infecting strain (Table 2); format: cell-based; details: ATCC29213
Summary of the method: as §2

[9] = tested on: Staphylococcus aureus MRSA BAA-42; experiment: MIC against the infecting strain (Table 2); format: cell-based; details: Staphylococcus aureus
Summary of the method: as §2

E. coli 02-1-65 [10] = experiment: Protection test in vivo (intravenous injection) of infected mice; design: species or system Kungming mice; details: Escherichia coli, 02165
Summary of the method: (§3)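 Mice got a lethal intraperitoneal bacterial challenge, then one intravenous dose of drug in sterile water at 10, 5 or 2.5 mg/kg. Survival was checked every 24 h for 7–14 days, with death counted as the positive result.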

Enterococcus ATCC 700802 [11] = experiment: as above; design: species or system Kungming mice; details: Enterococcus, ATCC700802
Summary of the method: as §3

[12] = tested on: Staphylococcus aureus ATCC 29213; experiment: as above; design: species or system Kungming mice; details: Staphylococcus aureus, ATCC29213
Summary of the method: as §3

[13] = tested on: Staphylococcus aureus MRSA BAA-42; experiment: as above; design: species or system Kungming mice; details: Staphylococcus aureus
Summary of the method: as §3

In the case of `CC1(C)S[C@@H]2[C@H](NC(=O)Cc3ccccc3)C(=O)N2[C@H]1C(=O)O` [Penicillin, Benzylpenicillin Sodium], the “growth of penicillin-sensitive Staphylococcus aureus (bacteria-growth curve)” value [1] is reported as “restrained”, the MIC50 (Baumanii) is reported as greater than 128 µg/mL and the MIC90 (Baumanii) is reported as greater than 128 µg/mL. The MIC (Baumanii; read-out: Scope of MIC) was greater than 128 µg/mL, the MIC50 (E. coli; read-out: MIC50) was greater than 128 µg/mL and the MIC90 (E. coli; read-out: MIC90) was greater than 128 µg/mL. The MIC (E. coli; read-out: Scope of MIC) was greater than 128 µg/mL, the MIC50 [2] was 128 µg/mL and the MIC90 [2] was greater than 128 µg/mL. The MIC ([2]; read-out: Scope of MIC) was 1 to 128 µg/mL, the MIC50 [3] was 8 µg/mL and the MIC90 [3] was 64 µg/mL. For the same compound, the MIC50 [4] was greater than 128 µg/mL, the MIC90 [4] was greater than 128 µg/mL and the “Scope of MIC” value ([5]; MSSE clinical strains) was 0.125 to 128 mg/L. It also gave an MIC50 ([5]; Staphylococcus epidermidis) of 4 µg/mL, an MIC90 ([5]; Staphylococcus epidermidis) of 32 µg/mL and an MIC50 (Enterococcus) of 32 µg/mL. For the same compound, the MIC90 (Enterococcus) was 64 µg/mL, the MIC (Enterococcus ATCC 700802 [6]) was 4 µg/mL and the MIC (E. coli 02-1-65 [7]) was greater than 128 µg/mL. For the same compound, the MIC [8] was 16 µg/mL, the MIC [9] was 8 µg/mL and the ED50 (E. coli 02-1-65 [10]) was greater than 34.5 mg/kg. The ED50 (Enterococcus ATCC 700802 [11]) was 4.16 mg/kg, the ED50 [12] was 10.8 mg/kg and the ED50 [13] was 14.7 mg/kg.
